# Data as given in patent US20230331817A1 (The Regents of the University of California, priority 2020, published 2023).
# Read-outs that look alike come from different tables or passages of the source.
# Tests used:
# [1] = system: primary human dermal skin fibroblasts; assay: Caspase 3/7 assay, skin fibroblasts; format: cell-based; settings: 24 hours; 30 μM KD1TM, 30 μM BPTI, 60 mM EACA, 30 mM TXA
# Description: The influence of antifibrinolytic agents on apoptosis in cells was detected using the Caspase-Glo 3/7 Assay kit (Promega). Caspase 3 and 7 are activated in cells that undergo apoptosis. The assay provides a luminogenic substrate for caspase 3 and 7. Enzymatic activity leads to luminescence, which is proportional to the amount of caspase activity present. Cells were seeded in 96-well plates and treated with antifibrinolytic agents or phosphate buffer (solvent control). Taxol was included as positive control. After 24 hours of treatment, caspase reagent was added to each well, mixed and incubated for 1 hour at room temperature. Luminescence was measured using the FLUOstar Omega Microplate Reader (BMG Labtech).
# [2] = system: primary human dermal skin fibroblasts; assay: Resazurin reduction (alamarBlue) viability assay, skin fibroblasts; format: cell-based
# Description: (§1) Resazurin reduction assay (Fisher Scientific) was used to evaluate the potential cytotoxicity of antifibrinolytic agents toward primary human endothelial cells and skin fibroblasts. Phosphate buffer that was used to dissolve the samples was included as negative control. The assay is based on reduction of the non-fluorescent dye resazurin, to the highly fluorescent resorufin by viable cells. […] Briefly, cells in 96-well cell culture plates were treated with different concentrations of antifibrinolytic compounds (as described above). After 24 hours resazurin reagent was added to each well and the plates were incubated at 37° C. for 4 hours. Fluorescence was measured by the FLUOstar Omega Microplate Reader (BMG Labtech) using an excitation wavelength of 544 nm and an emission wavelength of 590 nm. Each assay was done in duplicate, with three replicates each. The viability was evaluated based on comparison with untreated cells.
# [3] = system: HUVEC; format: cell-based, human
# Description: as §1
# [4] = rats and dogs; cited from earlier work
# [5] = humans; cited from earlier work
# [6] = molecular target: T1, Plasma kallikrein (pKLK) (Homo sapiens, UniProt P03952); assay: Protease inhibition assay, plasma kallikrein; format: biochemical
# T1 construct: Plasma kallikrein (pKLK) was from Enzyme Research Laboratories; purchased Enzyme Research Laboratories (South Bend, IN)
# T1 sequence (P03952 20-390 limits assumed): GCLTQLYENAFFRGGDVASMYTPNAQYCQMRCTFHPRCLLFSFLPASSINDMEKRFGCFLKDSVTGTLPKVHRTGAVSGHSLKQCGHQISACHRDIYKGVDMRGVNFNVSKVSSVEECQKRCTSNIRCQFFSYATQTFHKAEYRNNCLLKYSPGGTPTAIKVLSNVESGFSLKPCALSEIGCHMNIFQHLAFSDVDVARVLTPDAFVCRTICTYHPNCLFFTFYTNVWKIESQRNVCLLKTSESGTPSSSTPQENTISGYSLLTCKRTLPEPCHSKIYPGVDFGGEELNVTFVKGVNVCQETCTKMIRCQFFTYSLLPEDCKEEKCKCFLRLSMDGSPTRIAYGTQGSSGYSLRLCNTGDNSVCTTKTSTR
# T1 sequence (P03952 391-638 limits assumed): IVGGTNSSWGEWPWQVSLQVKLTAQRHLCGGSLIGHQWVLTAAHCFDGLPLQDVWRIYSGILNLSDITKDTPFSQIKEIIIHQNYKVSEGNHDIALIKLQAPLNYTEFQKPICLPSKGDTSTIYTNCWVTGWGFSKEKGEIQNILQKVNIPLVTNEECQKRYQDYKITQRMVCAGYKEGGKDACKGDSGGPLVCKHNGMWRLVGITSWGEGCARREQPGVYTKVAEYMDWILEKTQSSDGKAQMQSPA
# Description: (§2) All reactions were carried out in TBS, pH 7.5 (50 mM Tris-HCL, pH 7.5, containing 100 mM NaCl), containing 0.1 mg bovine serum albumin/ml (TBS/BSA) and 2 mM Ca2+(TBS/BSA/Ca2+, pH 7.5). […] The inhibition constant, K* was determined using the nonlinear regression data analysis program Grafit.
# (§3) Ki values were obtained by correcting for the effect of substrate according to Beith (38), using equation 2, where (S) is substrate concentration and KM is specific for each enzyme.
# [7] = molecular target: DIP-δplasmin; assay: Surface plasmon resonance binding to DIP-δplasmin
# Description: Active-site blocked δplasmin was generated by treating δplasmin with equal volumes of 1 M Tris-HCl, pH 8.0 and 1 M DFP (final concentration of 1 mM DFP) at room temperature for 20 minutes, followed by an incubation on ice for several hours. Additional equal volumes of 1M Tris-HCl, pH 8.0 and 1M DFP (final concentration of 2 mM) were added and the reaction was incubated at room temperature for 20 minutes and then over night at 4° C. The DFP inhibited Splamsin (DIP-δplasmin) was dialyzed against 20 mM HEPES pH 7.5, containing 150 mM NaCl and assayed for residual activity using S-2251 synthetic substrate hydrolysis. Based upon the residual activity, >99% of the δplasmin was inactivated.
# (§4) Binding studies were performed on a Biacore T100 flow biosensor (Biacore, Uppsala, Sweden) at 25° C. DIP-δplasmin (˜98% purity using SDS-PAGE) or tPA (>98% purity using SDS-PAGE) was immobilized on carboxymethyl-dextran flow cell (CM5 sensor chips, GE Healthcare) using amine-coupling chemistry. Flow cell surfaces were activated with a mixture of 1-ethyl-3-(3-dimethylaminopropyl) carbodiimide and N-hydroxysulfosuccinimide for 5 min (flow rate 10 μl/min), after which the protein (20 μg/ml in 10 mM sodium acetate, pH 5.5) was injected onto the surface. Unreacted sites were blocked for 5 minutes with 1 M ethanolamine. The analyte KD1-Y11T/L17R-KT (100 to 2000 nM) was perfused through flow cells in HBS-P buffer (20 mM HEPES, pH 7.4, 100 mM NaCl, 0.005% (v/v) P20) at 10 μl/minutes for 6 minutes. After changing to HBS-P buffer without the protein, analyte dissociation was monitored for 10 min. Flow cells were regenerated with HBS-P containing 20 mM EACA. Data were corrected for nonspecific binding by subtracting signals obtained with the analyte infused through a flow cell without the coupled protein. Binding was analyzed with BIAevaluation software (Biacore) using a 1:1 binding model. Kd values were calculated from the quotient of the derived dissociation (kd) and association (ka) rate constants.
# [8] = system: tPA-induced plasma clot fibrinolysis; assay: Fibrinolysis (clot lysis) assay in normal pooled plasma; format: biochemical; settings: human NPP
# Description: The method of Sperzel and Huetter (40) was followed with minor modifications as outlined earlier (32,41). Briefly, IIa was used to initiate fibrin formation in NPP and the lysis of the formed clot (fibrinolysis) was induced by simultaneous addition of tPA. Clot formation and lysis were monitored with a Molecular Devices microplate reader (SPECTRAmax 190) measuring the optical density at 405 nm. […] Two hundred twenty-five μL of this mixture was then added to 25 μL IIa and tPA in TBS/BSA containing 25 mM CaCl2). In the 250 μL final volume, concentration of IIa was 0.15 μg/ml and that of tPA was 1 μg/ml. Under control conditions (zero tPA and zero test compound), OD405 increased immediately indicating clotting followed by an extremely slow decrease representing fibrinolysis. As clotting was almost complete after 5 minutes, fibrinolysis induced by tPA was evaluated as a relative decrease of OD405 up to 60 minutes.
# Addition of thrombin (IIa) to human normal pooled plasma (NPP) caused fibrin formation, which is reflected by the increase in OD405 (black curve, FIGS. 3A and 3B). Simultaneous addition of tPA caused initial clot formation followed by dissolution of fibrin induced by tPA-mediated conversion of plasminogen to plasmin (black curve with closed circles, FIGS. 3A and 3B); the midpoint of fibrinolysis was ˜8 min in each case. Both antifibrinolytic agents inhibited fibrinolysis in a dose-dependent manner.
# [9] = molecular target: T2, human plasmin (Homo sapiens, UniProt P00747); assay: Stability study: plasmin inhibition after storage; format: biochemical; settings: 0.59 mg/ml kept at 4° C., room temperature and 37° C. for a week
# T2 construct: purchased Hematologic Technologies Inc (Essex Junction, VT)
# T2 sequence (P00747 97-580 limits assumed): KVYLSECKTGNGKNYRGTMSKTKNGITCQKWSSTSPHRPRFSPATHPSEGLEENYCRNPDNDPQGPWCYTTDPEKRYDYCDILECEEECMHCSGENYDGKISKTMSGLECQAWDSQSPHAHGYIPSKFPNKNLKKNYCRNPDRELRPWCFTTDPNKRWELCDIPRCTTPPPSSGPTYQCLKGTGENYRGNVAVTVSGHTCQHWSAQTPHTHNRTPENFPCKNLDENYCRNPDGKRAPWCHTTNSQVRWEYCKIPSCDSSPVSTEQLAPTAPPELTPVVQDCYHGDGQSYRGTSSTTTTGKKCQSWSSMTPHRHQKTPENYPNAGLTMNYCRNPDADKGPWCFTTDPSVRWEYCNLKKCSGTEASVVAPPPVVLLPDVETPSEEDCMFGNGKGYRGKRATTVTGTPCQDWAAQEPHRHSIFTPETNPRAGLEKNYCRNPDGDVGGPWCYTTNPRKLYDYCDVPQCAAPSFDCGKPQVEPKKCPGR
# T2 sequence (P00747 581-810 limits assumed): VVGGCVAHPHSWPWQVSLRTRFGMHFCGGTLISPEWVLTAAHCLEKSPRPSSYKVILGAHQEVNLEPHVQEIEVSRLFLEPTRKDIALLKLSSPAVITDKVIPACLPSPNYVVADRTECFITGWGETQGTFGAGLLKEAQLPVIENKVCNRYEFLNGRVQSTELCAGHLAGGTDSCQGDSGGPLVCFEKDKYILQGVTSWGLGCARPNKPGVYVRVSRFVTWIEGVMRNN
# Description: In stability studies, the KD1Y11T/R15K/L17R-KT sample (0.59 mg/ml) was kept at 4° C., at room temperature and at 37° C. for a week and its plasmin inhibition was studied each day. […] Reactions were carried out in TBS/BSA and 2 mM calcium. Human plasmin was incubated with various concentrations of rHuKD1-TM for 1 hour at room temperature in a 96-well microtiter plate. Synthetic substrate for plasmin was then added to a final concentration of 1 KM, and residual amidolytic activity was measured in a kinetic microplate reader (Molecular Devices). In Table 7 below, the apparent inhibition constant, Ki* was determined using the nonlinear regression data analysis program. Data are analyzed using an equation for a tight-binding inhibitor and Ki values are obtained by correcting for the effect of substrate concentration.
# [10] = system: tPA-induced lysis of clot formed in whole blood; assay: Thromboelastography, tPA-induced clot lysis in whole blood; format: biochemical
# Description: The effect of different concentrations of KD1-Y11T/R15K/L17R-KCOOH (KD1TM) on fibrinolysis was evaluated with thromboelastography (TEG) using a TEG 5000 Thrombelastograph (Haemonetics Corp, Braintree, MA, USA). Each clot formation/lysis assay contained 300 μL of citrated whole blood, thrombin (0.15 μM, final concentration), tPA (2 nM, final concentration), CaCl2) (10 mM, final concentration) and various concentrations of KD1TM in TBS/BSA (50 mM Tris-HCl, 100 mM NaCl, containing 0.1 mg bovine serum albumin/mL) to make the final volume to 360 μL. Thrombin, tPA and CaCl2) were added last to initiate simultaneous clotting and fibrinolysis. […] Each experiment was performed at least 60 min after the maximal amplitude was reached to establish the LY60 value. TEG Analytical Software (version 4.2.3; Haemonetics Corporation, Braintree, MA, USA) was used to calculate the time to clot initiation (R), maximal clot strength (maximal amplitude (MA), which was directly related to the shear elastic modulus strength, G), and percent lysis 60 min after MA (LY60).
# [11] = molecular target: T3, tPA (Homo sapiens, UniProt P00750); assay: Surface plasmon resonance binding to tPA; settings: 25° C; 1:1 binding model
# T3 construct: purchased Genentech (South San Francisco, CA)
# T3 sequence (P00750 36-562): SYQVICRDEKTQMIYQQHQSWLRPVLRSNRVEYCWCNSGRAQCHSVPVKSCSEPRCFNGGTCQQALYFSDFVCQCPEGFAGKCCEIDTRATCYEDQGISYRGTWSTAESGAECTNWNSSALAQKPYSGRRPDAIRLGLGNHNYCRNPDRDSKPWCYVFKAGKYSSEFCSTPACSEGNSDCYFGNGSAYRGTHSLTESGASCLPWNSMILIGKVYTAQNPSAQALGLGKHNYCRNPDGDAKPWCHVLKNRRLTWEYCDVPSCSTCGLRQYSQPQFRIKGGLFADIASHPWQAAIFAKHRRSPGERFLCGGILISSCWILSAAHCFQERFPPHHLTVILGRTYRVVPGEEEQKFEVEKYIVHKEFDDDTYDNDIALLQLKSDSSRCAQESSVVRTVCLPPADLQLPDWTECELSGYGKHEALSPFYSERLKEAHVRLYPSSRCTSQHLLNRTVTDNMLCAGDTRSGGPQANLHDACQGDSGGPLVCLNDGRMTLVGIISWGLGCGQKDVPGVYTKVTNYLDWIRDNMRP
# Description: as §4
# [12] = molecular target: T4, human FXIa (Homo sapiens, UniProt P03951); assay: Protease inhibition assay, factor XIa; format: biochemical; settings: up to 3 μM inhibitor; 1 nM FXIa; triplicate
# T4 construct: Purified human FXIa, thrombin (IIa) and plasmin were purchased; purchased Hematologic Technologies Inc (Essex Junction, VT)
# T4 sequence (P03951 19-387 limits assumed): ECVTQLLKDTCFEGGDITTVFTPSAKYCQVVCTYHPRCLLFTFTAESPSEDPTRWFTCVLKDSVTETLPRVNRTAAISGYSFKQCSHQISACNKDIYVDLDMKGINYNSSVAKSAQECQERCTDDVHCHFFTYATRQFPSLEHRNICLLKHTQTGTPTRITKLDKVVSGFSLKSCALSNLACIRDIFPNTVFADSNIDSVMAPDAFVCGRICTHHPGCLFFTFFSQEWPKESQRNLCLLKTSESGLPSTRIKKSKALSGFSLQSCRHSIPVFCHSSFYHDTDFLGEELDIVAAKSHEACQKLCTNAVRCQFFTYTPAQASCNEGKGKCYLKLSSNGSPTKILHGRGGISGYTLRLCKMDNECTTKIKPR
# T4 sequence (P03951 388-625 limits assumed): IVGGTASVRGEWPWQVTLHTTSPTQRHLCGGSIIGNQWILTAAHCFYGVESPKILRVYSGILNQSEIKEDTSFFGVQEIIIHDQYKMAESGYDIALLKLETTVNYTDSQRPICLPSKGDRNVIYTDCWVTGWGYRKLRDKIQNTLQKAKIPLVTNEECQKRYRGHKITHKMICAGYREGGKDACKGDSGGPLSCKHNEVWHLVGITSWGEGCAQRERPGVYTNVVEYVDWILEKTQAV
# Description: as §2, §3
# [13] = molecular target: T5, FVIIa/sTF (Homo sapiens, UniProt P08709); assay: Protease inhibition assay, FVIIa/soluble tissue factor; format: biochemical; settings: up to 3 μM inhibitor; 20 nM FVIIa/sTF; triplicate
# T5 construct: human factor VIIa (FVIIa) was prepared as described previously (34)
# T5 sequence (P08709 213-466 limits assumed): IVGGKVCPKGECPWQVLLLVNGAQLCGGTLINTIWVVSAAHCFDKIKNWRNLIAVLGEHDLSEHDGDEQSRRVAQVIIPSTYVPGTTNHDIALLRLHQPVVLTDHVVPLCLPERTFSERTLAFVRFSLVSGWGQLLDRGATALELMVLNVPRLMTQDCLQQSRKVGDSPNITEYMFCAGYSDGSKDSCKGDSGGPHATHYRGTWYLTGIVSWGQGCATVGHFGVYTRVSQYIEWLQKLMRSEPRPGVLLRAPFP
# T5 sequence (P08709 61-212 limits assumed): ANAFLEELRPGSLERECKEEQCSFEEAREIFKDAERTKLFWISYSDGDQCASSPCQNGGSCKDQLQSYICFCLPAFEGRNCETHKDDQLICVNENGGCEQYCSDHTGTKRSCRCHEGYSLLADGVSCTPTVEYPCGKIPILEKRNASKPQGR
# T5 sequence (P13726 33-251 partner limits assumed): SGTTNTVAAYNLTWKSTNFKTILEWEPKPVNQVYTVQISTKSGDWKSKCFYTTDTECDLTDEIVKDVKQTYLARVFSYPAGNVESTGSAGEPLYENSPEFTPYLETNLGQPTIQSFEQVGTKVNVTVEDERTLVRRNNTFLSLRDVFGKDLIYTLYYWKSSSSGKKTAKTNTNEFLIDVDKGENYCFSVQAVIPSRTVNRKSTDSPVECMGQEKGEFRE
# Description: as §2, §3
# [14] = system: mouse injury models; settings: liver laceration model and tail amputation model; cited from earlier work
# [15] = system: plasmin induced lysis of clot formed in whole blood; assay: Thromboelastography, plasmin induced clot lysis in whole blood; format: biochemical, human
# Description: Plasmin and CaCl2) were added last to initiate simultaneous clotting and fibrinolysis. […] The thromboelastograph was calibrated each day and each inhibitor concentration was tested in duplicate. TEG Analytical Software (version 4.2.2; Haemonetics Corporation, Braintree, MA) was used to calculate the time to clot initiation (R), maximal clot strength (maximal amplitude (MA), which was directly related to the shear elastic modulus strength, G), and percent lysis 60 minutes after MA (LY60) (42).
# [16] = NHB + […] plasmin, inhibitor 5 μM
compound,measurement,setting,value
"NC[C@H]1CC[C@H](C(=O)O)CC1 [TXA, tranexamic acid]","Apoptosis, caspase-3/7 activity, skin fibroblasts (FIG. 6)",[1],not in fibroblasts
same,"Cell viability, primary human skin fibroblasts (Example 1)","[2]; 24 hours, KD1-Y11T/L17R-KT and aprotinin 0.1 μM-30 μM, EACA 1-60 mM, TXA 0.2-30 mM",equally unchanged
same,Fibroblast cell viability (FIG. 5),"[2]; 24 hours, indicated concentrations, p>0.05",not significantly different from the untreated cells
same,HUVEC viability (FIG. 4),[3],not significantly different from the untreated cells
same,plasma half-life,[4],~2 h
same,half-life,[5],~2 h
"KD1Y11T/R15K/L17R-KT: 60-residue triple mutant of Kunitz domain1 of human TFPI-2, SEQ ID NO: 1, C-terminal IEK, expressed in Pichia (NAEICLLPLDTGPCKARLLRYYYDRYTQSCRQFLYGGCEGNANNFYTWEACDDACWRIEK)",Concentration until which kallikrein inhibition is not observed,[6],25 µM
same,Kd,[7]; read-out: Affinity of binding to the plasmin kringle domain,~40 nM
same,Fibrinolysis midpoint (Example 2),"[8]; 0.5 μM inhibitor + tPA, ˜8 min without inhibitor",~15 min
same,Effect on tPA induced fibrinolysis (Example 2),[8]; 3 μM inhibitor + tPA,completely prevented tPA induced fibrinolysis
same,Effect on clot formation or fibrinolysis in the absence of tPA (Example 2),"[8]; 3 μM inhibitor, no tPA",had no effect on clot formation or fibrinolysis
same,Fibroblast cell viability (FIG. 5),[2],not significantly different from the untreated cells
same,Stability of plasmin inhibition on storage,[9],plasmin inhibitory properties are not altered
same,HUVEC viability (FIG. 4),[3],not significantly different from the untreated cells
same,G,"[10]; 2 nM tPA + 2 μM KD1TM, […] thrombin",3525.4 dyn/cm^2
same,MA,"[10]; 2 nM tPA + 4 μM KD1TM, […] thrombin",44.2 mm
same,"Clot strength MA restored, relative to blood without tPA","[10]; 2 nM tPA, 4 μM KD1TM",98%
same,"G restored, relative to blood without tPA","[10]; 2 nM tPA, 4 μM KD1TM",96%
KD1-Y11T/L17R-KT: 60-residue double mutant (Y11T/L17R) of Kunitz domain1 of human TFPI-2 with C-terminal IEK (NAEICLLPLDTGPCRARLLRYYYDRYTQSCRQFLYGGCEGNANNFYTWEACDDACWRIEK),Kd,[11],~35 nM
same,"koff, tPA",[11],1.05±0.7×10^−4 s^−1
same,"kon, tPA",[11],2.91±0.4×10^3 M^−1s^−1
same,Inhibition profile with FXIa,[12],No inhibition was observed
same,Inhibition profile with pKLK,"[6]; up to 3 μM inhibitor, 1 nM pKLK, triplicate",No inhibition was observed
same,Inhibition profile with FVIIa/sTF,[13],No inhibition was observed
same,Prevention of blood loss,[14],successful in preventing blood loss
same,"koff, DIP-δplasmin","[7]; 25° C, 1:1 binding model",7.13±0.9×10^−5 s^−1
same,"kon, DIP-δplasmin","[7]; 25° C, 1:1 binding model",1.49±0.3×10^3 M^−1s^−1
same,Kd,"[7]; 25° C, 1:1 binding model, read-out: Kd, DIP-δplasmin (kringle domain of plasminogen/plasmin)",~50 nM
same,G,[15]; [16],~3004 dyn/cm^2
same,LY60,[15]; [16],~12%
same,"Clot strength MA restored, relative to blood without plasmin","[15]; […] plasmin, inhibitor 5 μM",~80%
same,"G restored, relative to blood without plasmin","[15]; […] plasmin, inhibitor 5 μM",~65%
same,"G restored, relative to blood without plasmin","[15]; […] plasmin, inhibitor 7.5 μM",~70%
same,"MA restored, relative to blood without plasmin","[15]; […] plasmin, inhibitor 7.5 μM",~83%
same,Max OD405,[8]; 0.5 μM inhibitor + tPA,1.54 ± 0.14
same,OD405 at 60 min,[8]; 0.5 μM inhibitor + tPA,0.85 ± 0.13
same,Fibrinolysis midpoint time,[8]; 1.0 μM inhibitor + tPA,27 ± 1.1 min
same,Max OD405,[8]; 1.0 μM inhibitor + tPA,1.54 ± 0.11
same,OD405 at 60 min,[8]; 1.0 μM inhibitor + tPA,0.84 ± 0.12
same,Fibrinolysis midpoint time,[8]; 2.0 μM inhibitor + tPA,>60 min
same,Max OD405,[8]; 2.0 μM inhibitor + tPA,1.58 ± 0.09
same,OD405 at 60 min,[8]; 2.0 μM inhibitor + tPA,1.35 ± 0.06
same,Fibrinolysis midpoint time,[8]; 3.0 μM inhibitor + tPA,>60 min
same,Max OD405,[8]; 3.0 μM inhibitor + tPA,1.71 ± 0.10
same,OD405 at 60 min,[8]; 3.0 μM inhibitor + tPA,1.57 ± 0.08
same,OD405 at 60 min,[8]; […] inhibitor + tPA,0.86 ± 0.15
